Experimental findings from BindingDB's records for doi:10.1016/j.ejmech.2017.02.022 (Svkm'S Dr. Bhanuben Nanavati College of Pharmacy, 2017) are described below.

The series is described as follows: Inhibition of ABCB1 in human MCF7/ADR cells assessed as potentiation of vinblastine-induced cytotoxicity by measuring vinblastine IC50 at IC10 after 7 days by SRB assay. (The SRB assay estimates cell density from bound dye.)

As for `Cc1cc(C)c2c(c1)c(=O)c1ccccc1n2CCCCN1CCN(CCO)CC1`, the 50% inhibitory concentration (IC50) amounted to 1.3 nM.
To `CCN(CC)CCCn1c2ccccc2c(=O)c2cc(C)cc(C)c21` belongs 14 nM; to `Cc1cc(C)c2[nH]c3ccccc3c(=O)c2c1`, 27 nM.
To `Cc1cc(C)c2c(c1)c(=O)c1ccccc1n2CCCN1CCCCC1` belongs 17 nM; to `CCN(CC)CCCCn1c2ccccc2c(=O)c2cc(C)cc(C)c21`, 4.1 nM; to `Cc1cc(C)c2c(c1)c(=O)c1ccccc1n2CCCN1CCN(CCO)CC1`, 8 nM.
The same measure for `Cc1cc(C)c2c(c1)c(=O)c1ccccc1n2CCCN1CCOCC1`: 20 nM.
For `Cc1cc(C)c2c(c1)c(=O)c1ccccc1n2CCCN(CCO)CCO`, the 50% inhibitory concentration (IC50) came out at 11 nM.
To `Cc1cc(C)c2c(c1)c(=O)c1ccccc1n2CCCN1CCN(C)CC1` belongs 17 nM; to `Cc1cc(C)c2c(c1)c(=O)c1ccccc1n2CCCCN1CCCCC1`, 5 nM; to `Cc1cc(C)c2c(c1)c(=O)c1ccccc1n2CCCCN1CCOCC1`, 4 nM.
The same measure for `Cc1cc(C)c2c(c1)c(=O)c1ccccc1n2CCCCN1CCN(C)CC1`: 10 nM; for `Cc1cc(C)c2c(c1)c(=O)c1ccccc1n2CCCCN(CCO)CCO`: 3.1 nM.

One may read the IC50 as the point on the concentration scale where inhibition reaches its midpoint.
